Results: article PMC9950205, “Efficacy, safety, and pharmacokinetics of teduglutide in adult Japanese patients with short bowel syndrome and intestinal failure: two phase III studies with an extension” (Surgery Today, 2022)

Tests used:
[1] = system: adult Japanese patients with SBS-IF; experiment: Parenteral support (PS) requirements in phase III studies TED-C14-004, SHP633-306 and extension SHP633-307, teduglutide 0.05 mg/kg SC once daily; type: in vivo, human; conditions: for Patients with reduction in weekly PS volume of ≥ 20% from baseline at both weeks 20 and 24: 0.05 mg/kg SC once daily; for Patients whose PS volume decreased by ≥ 20%: 0.05 mg/kg/day
Protocol: As in the previous STEPS-1 study, patients participating in the core studies (TED-C14-004 and SHP633-306) underwent an optimization (2–8 weeks) and stabilization (4–8 weeks) period before initiation of treatment with teduglutide, during which PS was adjusted with the goal of achieving a stable target urine output of 1.0–2.0 L/day. All participating patients received teduglutide 0.05 mg/kg SC once daily throughout these three studies. PS was adjusted according to an algorithm based on the change from baseline in urine output and other assessments of fluid balance and nutrition status; the PS adjustment algorithm required reductions in PS if the urine output rose more than 10% above baseline. Patients had study visits at weeks 2 and 4, after which visits were held monthly during TED-C14-004 and SHP633-306. During SHP633-307, patients from SHP633-306 had monthly study visits throughout the 24 total months of treatment and then at 3-month intervals thereafter, and patients from TED-C14-004 had visits at 3-month intervals. The end-of-study assessments for SHP633-306 and TED-C14-004 were combined with the first visit of SHP633-307. SHP633-307 is ending soon with the approval of teduglutide in Japan.
Efficacy endpoints were defined in an analogous manner to previous pivotal studies. These included a clinically meaningful reduction in weekly PS volume of ≥ 20% [17] measured between baseline and both 20 and 24 weeks for TED-C14-004 and SHP633-306, and a continued reduction in weekly PS volume of ≥ 20% from the baseline in core studies at each scheduled visit until the last visit before the interim data cut-off of SHP633-307. Other efficacy endpoints included changes in absolute and percentage weekly PS volumes from the baseline in the core studies at each study visit, the number of days per week of PS, the number of patients who achieved enteral autonomy at the end of treatment or the data cut-off, and the changes in plasma citrulline levels from baseline in the core studies. The primary efficacy data were derived from patient diaries and compared against investigator-prescribed data captured in electronic case report forms.
Efficacy was evaluated between baseline and 24 weeks in TED-C14-004 and SHP633-306 and between baseline and 30 months in […]. Among patients who entered SHP633-307, the total follow-up periods, including the prior studies, were up to 14–57 months of total teduglutide exposure for patients from SHP633-306 and TED-C14-004.
Post hoc analyses of PS volume reductions in patients with Crohn’s disease, with and without a stoma, were performed for TED-C14-004.

[2] = system: adult Japanese patients with SBS-IF; experiment: Anti-teduglutide antibodies in blood samples; type: in vivo, human
Protocol: In TED-C14-004 and SHP633-306, blood samples for PK evaluations were taken pre-dose and at 0.25, 0.5, 1, 2, 3, 4, 6, 8, 10, and 12 h post-dose during the first 12 weeks of treatment with teduglutide. In SHP633-307, patients continuing from study TED-C14-004 had blood samples for PK evaluations taken pre-dose and at […], and 1, 2, 3, 4, 6, 8, 10, and 12 h post-dose at the first extension study visit. Patients continuing from SHP633-306 had blood samples taken pre-dose and 1 and 2 h post-dose at the first extension study visit. Blood samples to test for the presence of antibodies to teduglutide were taken at baseline and weeks 12 and 24 in SHP633-306; ≥ 14 h after dosing at baseline and weeks 12 and 24, and then every 6 months thereafter in TED-C14-004; and every 3 months in SHP633-307.
Safety analyses included the monitoring of adverse events (AEs), body weight, BMI, vital signs, 12-lead electrocardiogram (ECG), serum biochemistry, hematology, and presence of antibodies to teduglutide. AEs were coded using the Medical Dictionary for Regulatory Activities versions 17.1 (TED-C14-004) and 21.0 (SHP633-306 and SHP633-307). Specifically, AEs were treatment-emergent AEs (TEAEs), defined as any unfavorable and unintended sign (including any abnormal laboratory finding), symptom, or disease that occurred during treatment with teduglutide, whether or not the event was considered to be related to the study drug by the clinical study investigator. AEs were also categorized as mild, moderate, or severe. […] AEs were considered related to treatment with teduglutide, or its administration, based on the investigator's medical judgment.

[3] = 12 months, patients from SHP633-306, n = 4, mean ± SD
[4] = 24 weeks, SHP633-306, n = 6, mean ± SD
[5] = 24 weeks, TED-C14-004, n = 9, mean ± SD
[6] = 30 months, TED-C14-004, n = 7, mean ± SD
[7] = 39 months, patients from TED-C14-004 in extension study, n = 5, mean ± SD
[8] = interim data cut-off, patients from TED-C14-004 in extension study, n = 3, mean ± SD
[9] = last visit before interim data cut-off of SHP633-307, patients from SHP633-306, n = 2, mean ± SD
[10] = post hoc, TED-C14-004, patients with Crohn’s disease, 24 weeks, n = 7, mean ± SD
[11] = post hoc, TED-C14-004, patients with Crohn’s disease, 30 months, n = 6, mean ± SD
[12] = post hoc, TED-C14-004, patients with a stoma, 24 weeks, n = 6, mean ± SD
[13] = post hoc, TED-C14-004, patients with a stoma, 30 months, n = 5, mean ± SD
[14] = post hoc, TED-C14-004, patients without a stoma, 24 weeks, n = 3, mean ± SD
[15] = post hoc, TED-C14-004, patients without a stoma, 30 months, n = 2, mean ± SD

Structure (SMILES): CC[C@H](C)[C@H](NC(=O)[C@H](Cc1ccccc1)NC(=O)[C@H](CC(=O)O)NC(=O)[C@H](CCCNC(=N)N)NC(=O)[C@H](C)NC(=O)[C@H](C)NC(=O)[C@H](CC(C)C)NC(=O)[C@H](CC(N)=O)NC(=O)[C@H](CC(=O)O)NC(=O)[C@H](CC(C)C)NC(=O)[C@@H](NC(=O)[C@@H](NC(=O)[C@H](CC(N)=O)NC(=O)[C@H](CCSC)NC(=O)[C@H](CCC(=O)O)NC(=O)[C@H](CC(=O)O)NC(=O)[C@H](CO)NC(=O)[C@H](Cc1ccccc1)NC(=O)[C@H](CO)NC(=O)CNC(=O)[C@H](CC(=O)O)NC(=O)CNC(=O)[C@@H](N)Cc1c[nH]cn1)[C@@H](C)O)[C@@H](C)CC)C(=O)N[C@@H](CC(N)=O)C(=O)N[C@@H](Cc1c[nH]c2ccccc12)C(=O)N[C@@H](CC(C)C)C(=O)N[C@H](C(=O)N[C@@H](CCC(N)=O)C(=O)N[C@H](C(=O)N[C@@H](CCCCN)C(=O)N[C@H](C(=O)N[C@H](C(=O)N[C@@H](CC(=O)O)C(=O)O)[C@@H](C)O)[C@@H](C)CC)[C@@H](C)O)[C@@H](C)CC [teduglutide]
- PS volume decrease from baseline [1, 3]: 7.3 ± 6.5 L/week
- PS volume percent change from baseline [1, 3]: −51.6% ± 28.5%
- PS volume decrease from baseline [1, 4]: 3.3 ± 3.6 L/week
- PS volume percent change from baseline [1, 4]: −25.6% ± 25.5%
- Reduction in PS infusion frequency from baseline [1, 4]: 0.5 ± 1.23 days/week
- PS volume decrease from baseline [1, 5]: 4.9 ± 4.8 L/week
- PS volume percent change from baseline [1, 5]: −30.1% ± 25.9%
- Reduction in PS infusion frequency from baseline [1, 5]: 1.0 ± 1.8 days/week
- PS volume decrease from baseline [1, 6]: 8.3 ± 5.9 L/week
- PS volume percent change from baseline [1, 6]: −53.5% ± 33.9%
- Reduction in PS infusion frequency from baseline [1, 6]: 2.1 ± 3.3 days/week
- PS volume decrease from baseline [1, 7]: 7.9 ± 4.5 L/week
- PS volume percent change from baseline [1, 7]: −63.6% ± 33.9%
- Patients with reduction in weekly PS volume of ≥ 20% from baseline at both weeks 20 and 24 ([1]; SHP633-306, 4 of 7 patients): 57.1%
- Patients with reduction in weekly PS volume of ≥ 20% from baseline at both weeks 20 and 24 ([1]; TED-C14-004, 5 of 11 patients): 45.5%
- Patients with reduction in weekly PS volume of ≥ 20% from baseline at both weeks 20 and 24 ([1]; TED-C14-004 and SHP633-306 together, 9 of 18 patients): 50%
- Patients with ≥ 20% reduction in weekly PS volume from baseline ([1]; after 30 months, TED-C14-004, 6 of 7 patients): 85.7%
- Patients whose PS volume decreased by ≥ 20% ([1]; at 24 weeks, TED-C14-004 and SHP633-306): 9/18
- PS volume percent change from baseline ([1]; at data cut-off in SHP633-307, all patients, mean ± SD): −57.08 ± 28.49%
- Patients who achieved enteral autonomy ([1]; by 30 months, TED-C14-004, 2 of 8 patients): 25%
- Patients whose PS volume decreased by ≥ 20% ([1]; by data cut-off in SHP633-307): all 11 patients
- Patients with ≥ 20% reduction in weekly PS volume ([1]; by the end of TED-C14-004, maintained to last visit before data cut-off in the extension study): all patients
- Patients who maintained ≥ 20% reduction in PS volume from baseline at each scheduled visit to the last visit before data cut-off ([1]; extension study SHP633-307, patients from SHP633-306): All patients
- Patients who achieved enteral autonomy ([1]; first 24 weeks, SHP633-306 and TED-C14-004): No patients
- Reduction in PS infusion frequency from baseline ([1]; interim data cut-off of extension study, patients from SHP633-306, mean ± SD): 1.9 ± 2.3 days/week
- PS volume decrease from baseline [1, 8]: 11.5 ± 3.7 L/week
- PS volume percent change from baseline [1, 8]: −63.57% ± 32.0%
- PS volume decrease from baseline [1, 9]: 11.7 ± 8.6 L/week
- PS volume percent change from baseline [1, 9]: −76.4% ± 25.9%
- PS volume decrease from baseline [1, 10]: 5.3 ± 5.4 L/week
- PS volume percent change from baseline [1, 10]: −31.9% ± 28.9%
- PS volume decrease from baseline [1, 11]: 9.3 ± 5.8 L/week
- PS volume percent change from baseline [1, 11]: −59.4% ± 32.9%
- PS volume decrease from baseline [1, 12]: 6.1 ± 5.5 L/week
- PS volume percent change from baseline [1, 12]: −35.3% ± 30.1%
- PS volume decrease from baseline [1, 13]: 10.7 ± 5.4 L/week
- PS volume percent change from baseline [1, 13]: −65.2% ± 33.2%
- PS volume decrease from baseline [1, 14]: 2.7 ± 1.8 L/week
- PS volume percent change from baseline [1, 14]: −19.6% ± 13.1%
- PS volume decrease from baseline [1, 15]: 2.5 ± 0.2 L/week
- PS volume percent change from baseline [1, 15]: −24.3% ± 8.7%
- Maintenance of enteral autonomy ([1]; the 2 patients of TED-C14-004 with enteral autonomy, throughout SHP633-307 until interim data cut-off): remained off PS
- Reduction in PS infusion frequency from baseline ([1]; up to the end of the extension study, patients from TED-C14-004, mean ± SD): 2.2 ± 3.3 days/week
- Patients positive for anti-teduglutide antibodies ([2]; 24 weeks, 5 out of 14 patients (n = 4 TED-C14-004; n = 1 SHP633-306)): 35.7%
- Patients with low titers of anti-teduglutide antibodies as well as neutralizing antibodies ([2]; 39 months, patients from TED-C14-004 in SHP633-307, two patients): 40.0%
- Anti-teduglutide antibodies ([2]; 51 or 54 months, n = 7): No anti-teduglutide antibodies were detected
- Patients positive at 24 weeks who also tested positive up to 22 months ([2]; TED-C14-004): Three of the 4 patients
- Association between anti-teduglutide antibodies and a lack of efficacy ([2]; all studies): no association
- Patients positive for antibodies to teduglutide ([2]; month 12, SHP633-307 patients from SHP633-306, 2 out of 4): 50.0%
- Association of anti-teduglutide antibodies with AEs of hypersensitivity or teduglutide-related hypersensitivity reaction ([2]; patients in whom antibodies were detected): no association
